# Patent US11098062B2, “Monocyclic and bicyclic ring system substituted carbanucleoside analogues for use as PRMT5 inhibitors” (Janssen Pharmaceutica NV, priority 2016, dated 2021)
# Biological target: T1, PRMT5-MEP50 enzyme (Homo sapiens, UniProt O14744)
# T1 construct: One virus expresses full length human PRMT5 with Flag-tag at N-terminus; Flag (N); purchased Charles River (Argenta); host or cells: insect cells (Sf9), baculovirus co-infection
# Assay: In vitro assay 1b: PRMT5-MEP50 high throughput mass spectrometer assay (SAH formation), 1.25 nM enzyme
# Type: biochemical
# Conditions: 1.25 nM enzyme, 1 μM SAM, 0.3 μM H2A, 30° C., 120 min; averaged values; read-out: pIC50 Assay 1b (converted)
# Excerpt: Experimental Procedures In Vitro Assay (Assay 1a and 1b)
# PRMT5-MEP50 enzyme was purchased from Charles River (Argenta). The enzyme complex was produced in insect cells (Sf9) infected simultaneously with two baculoviruses. One virus expresses full length human PRMT5 with Flag-tag at N-terminus, the second virus expresses full length MEP50 with His6-TEV cleavage at N-terminus. The protein was affinity purified using anti-Flag (M2) beads eluted with 3×FLAG peptide, followed by His-Select eluted with 0.5M imidazole. Eluted protein was then dialysed against tris-buffered saline (TBS) (pH 8.0) containing 20% glycerol and 3 mM dithiothreitol (DTT).
# Full-length untagged human recombinant histone H2A (residues 1-130, Genbank Accession #NM_021052, MW=14.1 kDa) expressed in E. coli was purchased from Reaction Biology Corporation, Cat #HMT-11-146. Reagents used for making reaction buffer or stopping reaction were purchased including Tris base (Sigma Cat #T-1503), NaCl (Sigma Cat #RGF-3270), MgCl2 (Sigma Cat #M0250), DTT (Invitrogen Cat #15508-013) and Formic Acid (Riedel deHaen, Cat #33015)
# PRMT5 catalyzes the sequential methylations of the terminal nitrogen atoms on the guanidine groups of arginine residues within proteins using co-substrate S-adenosyl-L-methionine (AdoMet, SAM), forming mono-methyl (MMA), syrmmetric-dimethyl arginine (sDMA) and S-adenosyl-L-homocysteine (AdoHcy, SAH). The enzyme activity was determined by following the product SAH formation using high throughput mass spectrometry (Agilent Rapidfire 300 System coupled to a Sciex 4000 series QTrap® triple-quad MS/MS). The reaction buffer was 20 mM Tris-HCl, pH 8.5, 50 mM NaCl, 5 mM MgCl2 and 1 mM DTT. The reaction activity was stopped using 1% formic acid (final concentration).
# The IC50 Studies were performed using eleven point dosing series made for each compound by serially diluted 1:2 in dimethyl sulfoxide (DMSO), with point 12 being a DMSO control. Compounds were first spotted to plates, and followed by addition of 2 μM SAM and 0.6 μM H2A (histone H2A) solution mixture. The same volume of enzyme solution was added to initiate the enzymatic reactions. The final concentrations of the reaction are at 1 μM SAM, 0.3 μM H2A and 10 nM enzyme (assay 1a) or or 1.25 nM enzyme (assay 1b). The reaction was incubated at 30° C. for 60 minutes (min) when 10 nM enzyme was used and for 120 min when 1.25 nM enzyme was used. Subsequently, the reaction was quenched by addition of formic acid to a final concentration of 1%. The inhibitions of SAH formation in the presence of compounds were calculated as a percentage of the control relative to the uninhibited reaction as a function of inhibitor concentration. The data were fit as follows: Y=Bottom+(Top−Bottom)/(1+10^((log IC50−X)*h))
# where IC50 is the inhibitor concentration (same unit as X) at 50% inhibition and h is the Hill slope. Y is percent of inhibition, X is log of compound concentration. Bottom and Top are the plateaus in same units as Y.
# T1 sequence (O14744 whole entry): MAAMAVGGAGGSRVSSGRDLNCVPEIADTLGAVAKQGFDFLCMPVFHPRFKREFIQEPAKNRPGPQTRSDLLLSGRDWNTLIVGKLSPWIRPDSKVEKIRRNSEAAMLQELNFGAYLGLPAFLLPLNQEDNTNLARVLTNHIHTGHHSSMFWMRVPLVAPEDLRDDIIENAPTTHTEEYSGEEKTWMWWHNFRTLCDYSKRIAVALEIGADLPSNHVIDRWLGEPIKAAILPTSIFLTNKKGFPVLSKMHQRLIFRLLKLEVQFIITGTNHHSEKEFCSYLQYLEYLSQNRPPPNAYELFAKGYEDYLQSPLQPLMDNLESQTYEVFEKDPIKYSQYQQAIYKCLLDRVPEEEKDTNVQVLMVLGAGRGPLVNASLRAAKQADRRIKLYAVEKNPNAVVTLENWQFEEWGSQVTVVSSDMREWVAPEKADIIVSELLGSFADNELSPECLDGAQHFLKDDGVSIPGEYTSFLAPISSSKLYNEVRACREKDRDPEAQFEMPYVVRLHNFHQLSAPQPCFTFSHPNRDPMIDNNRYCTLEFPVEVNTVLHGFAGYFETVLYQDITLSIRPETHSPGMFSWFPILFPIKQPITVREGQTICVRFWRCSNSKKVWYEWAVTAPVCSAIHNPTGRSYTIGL
# T1 sequence (Q9BQA1 whole entry partner): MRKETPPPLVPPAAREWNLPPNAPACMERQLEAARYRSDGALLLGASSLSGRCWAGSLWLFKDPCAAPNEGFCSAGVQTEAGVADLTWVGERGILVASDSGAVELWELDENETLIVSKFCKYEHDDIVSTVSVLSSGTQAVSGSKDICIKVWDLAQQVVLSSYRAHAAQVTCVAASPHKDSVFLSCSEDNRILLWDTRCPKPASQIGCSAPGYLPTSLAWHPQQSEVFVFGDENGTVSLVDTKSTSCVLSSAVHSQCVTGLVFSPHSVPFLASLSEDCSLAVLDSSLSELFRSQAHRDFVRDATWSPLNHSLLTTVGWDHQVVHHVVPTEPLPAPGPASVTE
row,IC50 [µM],SMILES
1,0.0398,Nc1ncnc2c1ccn2[C@@H]1C[C@H](CCc2ccn3cc(C(F)(F)F)nc3c2)[C@@H](O)[C@H]1O [Compound 23]
2,0.251,Nc1ncnc2c1ccn2[C@@H]1C[C@H](Cn2ccc3ccncc32)[C@@H](O)[C@H]1O [Compound 75]
3,0.002,Nc1ccc(CCC[C@H]2C[C@@H](n3ccc4c(N)ncnc43)[C@H](O)[C@@H]2O)cn1 [Compound 53]
4,0.316,Nc1ncnc2c1ccn2[C@@H]1C[C@H](CCCc2cccnc2)[C@@H](O)[C@H]1O [Compound 42]
5,0.316,Nc1ncnc2c1ccn2[C@@H]1C[C@H](CCCc2cccc3ccncc23)[C@@H](O)[C@H]1O [Compound 51]
6,0.251,Nc1ncnc2c1ccn2[C@@H]1C[C@H](CCCCc2ccc3cccnc3c2)[C@@H](O)[C@H]1O [Compound 60]
7,0.0251,Nc1ncnc2c1ccn2[C@@H]1C[C@H](CCc2cnc3c(c2)CCN3)[C@@H](O)[C@H]1O [Compound 73]
8,0.0794,Nc1cc(CCCC[C@H]2C[C@@H](n3ccc4c(N)ncnc43)[C@H](O)[C@@H]2O)ccn1 [Compound 57]
9,0.00501,Cc1cn2ccc(OC[C@H]3C[C@@H](n4ccc5c(N)ncnc54)[C@H](O)[C@@H]3O)cc2n1 [Compound 33]
10,0.0398,Nc1ncnc2c1ccn2[C@@H]1C[C@H](CCCCc2cccc3ccncc23)[C@@H](O)[C@H]1O [Compound 66]
11,2,Nc1ncc(CC[C@H]2C[C@@H](n3ccc4c(N)ncnc43)[C@H](O)[C@@H]2O)cn1 [Compound 69]
12,0.1,Nc1ncnc2c1ccn2[C@@H]1C[C@H](CCCCc2ccccn2)[C@@H](O)[C@H]1O [Compound 64]
13,0.501,Nc1ncnc2c1ccn2[C@@H]1C[C@H](CCc2cnc(Nc3ccc(Cl)cc3)nc2)[C@@H](O)[C@H]1O [Compound 70]
14,0.1,Nc1cc2cccc(CCCC[C@H]3C[C@@H](n4ccc5c(N)ncnc54)[C@H](O)[C@@H]3O)c2cn1 [Compound 54]
15,0.0126,Nc1ncnc2c1ccn2[C@@H]1C[C@H](CCc2cnc3c(c2)OCCN3)[C@@H](O)[C@H]1O [Compound 72]
16,2,CC(c1cncn1C)[C@H]1C[C@@H](n2ccc3c(N)ncnc32)[C@H](O)[C@@H]1O (stereo partly drawn) [Compound 39]
17,0.0316,Nc1ccc2cccc(CCC[C@H]3C[C@@H](n4ccc5c(N)ncnc54)[C@H](O)[C@@H]3O)c2n1 [Compound 50]
18,2,Nc1ncnc2c1ccn2[C@@H]1C[C@H](CCCCc2cnc3c(N)cccc3c2)[C@@H](O)[C@H]1O [Compound 59]
19,0.1,Nc1ncnc2c1ccn2[C@@H]1C[C@H](CCC2=CC3=NC(=O)CN3C=C2)[C@@H](O)[C@H]1O [Compound 71]
20,2,Nc1cc(/C=C/[C@H]2C[C@@H](n3ccc4c(N)ncnc43)[C@H](O)[C@@H]2O)ccn1 [Compound 36]
21,0.794,Nc1cccc(/C=C/[C@H]2C[C@@H](n3ccc4c(N)ncnc43)[C@H](O)[C@@H]2O)n1 [Compound 37]

row,IC50 [µM],SMILES
1,1.58,Nc1ncnc2c1ccn2[C@@H]1C[C@H](CCCc2ccc3cccnc3c2)[C@@H](O)[C@H]1O [Compound 47]
2,0.00794,Nc1ncnc2c1ccn2[C@@H]1C[C@H](CCCCc2ccn3ccnc3c2)[C@@H](O)[C@H]1O [Compound 61]
3,0.794,Cn1cncc1CC[C@H]1C[C@@H](n2ccc3c(N)ncnc32)[C@H](O)[C@@H]1O [Compound 38]
4,1.58,Nc1ncnc2c1ccn2[C@@H]1C[C@H](CCCc2cnc3c(N)cccc3c2)[C@@H](O)[C@H]1O [Compound 44]
5,0.0631,CC(=O)Nc1cn2ccc(CC[C@H]3C[C@@H](n4ccc5c(N)ncnc54)[C@H](O)[C@@H]3O)cc2n1 [Compound 31]
6,> 2.51,Nc1ncnc2c1ccn2[C@@H]1C[C@H](CCCCc2cccc3cccnc23)[C@@H](O)[C@H]1O [Compound 58]
7,0.0316,Nc1ncnc2c1ccn2[C@@H]1C[C@H](CCCc2ccn3ccnc3c2)[C@@H](O)[C@H]1O [Compound 48]
8,> 2.51,Nc1ncnc2c1ccn2[C@@H]1C[C@H](CCCc2cccc3cccnc23)[C@@H](O)[C@H]1O [Compound 52]
9,0.00794,Nc1ccc(CCCC[C@H]2C[C@@H](n3ccc4c(N)ncnc43)[C@H](O)[C@@H]2O)cn1 [Compound 56]
10,2,Nc1ncnc2c1ccn2[C@@H]1C[C@H](CCCCc2ccncc2)[C@@H](O)[C@H]1O [Compound 63]
11,> 2.51,Nc1ncnc2c1ccn2[C@@H]1C[C@H](CCCc2ccccn2)[C@@H](O)[C@H]1O [Compound 46]
12,0.000398,Nc1cccc(CCCC[C@H]2C[C@@H](n3ccc4c(N)ncnc43)[C@H](O)[C@@H]2O)n1 [Compound 55]
13,0.501,Nc1cc(CCC[C@H]2C[C@@H](n3ccc4c(N)ncnc43)[C@H](O)[C@@H]2O)ccn1 [Compound 45]
14,> 2.51,Nc1ncnc2c1ccn2[C@@H]1C[C@H](CCCc2ccncc2)[C@@H](O)[C@H]1O [Compound 49]
15,0.501,Nc1ncnc2c1ccn2[C@@H]1C[C@H](CCc2cccnc2)[C@@H](O)[C@H]1O [Compound 67]
16,0.398,Nc1cc2cccc(CCC[C@H]3C[C@@H](n4ccc5c(N)ncnc54)[C@H](O)[C@@H]3O)c2cn1 [Compound 41]
17,0.794,Nc1ncnc2c1ccn2[C@@H]1C[C@H](CCCCc2cnc3ccccc3c2)[C@@H](O)[C@H]1O [Compound 62]
18,0.0794,Nc1cccc(CCC[C@H]2C[C@@H](n3ccc4c(N)ncnc43)[C@H](O)[C@@H]2O)n1 [Compound 40]
19,0.01,Nc1ccc2cccc(CCCC[C@H]3C[C@@H](n4ccc5c(N)ncnc54)[C@H](O)[C@@H]3O)c2n1 [Compound 65]
20,0.251,Nc1ncnc2c1ccn2[C@@H]1C[C@H](CCCc2cnc3ccccc3c2)[C@@H](O)[C@H]1O [Compound 43]
21,1.26,Nc1ncnc2c1ccn2[C@@H]1C[C@H](CCc2cn[nH]c2)[C@@H](O)[C@H]1O [Compound 68]
